Assay [1] addresses Glutamate receptor ionotropic, AMPA (Rattus norvegicus, UniProt P19490+P19491+P19492+P19493).
Description: Binding affinity against AMPA receptor in rat brain membrane using [3H]-AMPA as radioligand
The target in assay [2] is T1, Glutamate receptor ionotropic, AMPA (Rattus norvegicus) (UniProt P19491+P19492+P19493+P19490). Nature of the assay: Ability to inhibit [3H]AMPA binding to AMPA receptor in rat whole brain at 1 uM concentration.
For assay [3], the target named is T1, Glutamate receptor ionotropic, AMPA (Rattus norvegicus). The experiment in a line: Ability to inhibit [3H]AMPA binding to AMPA receptor in rat whole brain at 100 uM concentration. It counts as tissue-based.
For assay [4], the target named is Glutamate NMDA receptor. The experiment in a line: Binding affinity of compound against strychnine-insensitive glycine site on NMDA receptor in rat brain membrane using [3H]glycine as radioligand. Format: cell membranes.
In assay [5] the target is Glutamate NMDA receptor. The experiment in a line: Binding affinity of compound against NMDA receptor binding site in rat brain membrane using [3H]glutamate as radioligand. It counts as cell membranes.
Assay [6] has as its target Glutamate receptor ionotropic, kainate. The experiment in a line: Binding affinity against kainate receptor in rat brain membrane using [3H]kainate as radioligand. It counts as cell membranes.

By Ki is commonly meant a dissociation constant, usually derived from enzyme kinetics or from competition with a known ligand. Read a low Ki as tighter binding. As to `O=[N+]([O-])c1cc2nc(O)c(O)nc2cc1-n1cnc2ccccc21`, in assay [1], the affinity, expressed as Ki, was 1300 nM. Usually inhibition stands for the change of the read-out against control, counted positive when it falls. Low readings indicate a weak effect, high ones a strong effect. Compound `CC(=O)c1cc2nc(O)c(O)nc2cc1-n1ccnc1` returned an inhibition in assay [2] of 36%.

`O=[N+]([O-])c1ccc2nc(O)c(O)nc2c1` returned a Ki in assay [1] of 2000 nM. In other words, the single-digit micromolar range. `Oc1nc2ccc(-n3ccnc3)c(C(F)(F)F)c2nc1O`: the inhibition in assay [2] came out at 10%.

`O=[N+]([O-])c1cc(-n2ccnc2)cc2nc(O)c(O)nc12` yielded a Ki in assay [1] of 1900 nM.

Turning to `O=[N+]([O-])c1cc2nc(O)c(O)nc2cc1-n1cnc2c1CCCC2`, the Ki in assay [1] is 4800 nM. This Ki lies about 2.5-fold higher than the previous one.

Consider `Cc1cc2nc(O)c(O)nc2cc1-n1ccnc1`, for which the inhibition in assay [2] worked out at 14%.

For the compound `CCc1nccn1-c1cc2nc(O)c(O)nc2cc1[N+](=O)[O-]`, in assay [1], the Ki amounted to 390 nM. On the same count and under the same terms, for `O=[N+]([O-])c1cc2nc(O)c(O)nc2cc1-c1c[nH]cn1` the value was 690 nM; for `N#Cc1ccc2nc(O)c(O)nc2c1`, 5000 nM; for `O=[N+]([O-])c1cc2nc(O)c(O)nc2cc1-n1cccn1`, 1400 nM. Consider `Oc1nc2ccccc2nc1O`, for which the inhibition in assay [3] was determined as 24%.

Consider `N#Cc1cc2nc(O)c(O)nc2cc1-n1ccnc1`, for which the affinity in assay [1] corresponds to a Ki of 200 nM. On the same count and under the same terms, for `O=[N+]([O-])c1cc2nc(O)c(O)nc2cc1-n1cncn1` the value was 240 nM; for `O=[N+]([O-])c1cn(-c2cc3nc(O)c(O)nc3cc2[N+](=O)[O-])cn1`, 100 nM; for `O=[N+]([O-])c1cc2nc(O)c(O)nc2cc1-c1cccnc1`, 620 nM. Consider `O=c1[nH]c2cc(-n3ccnc3)c([N+](=O)[O-])cc2[nH]c1=O` [YM-90K], for which the Ki on Glutamate NMDA receptor [4] is 37000 nM; at Glutamate NMDA receptor [5], over 100000 nM; in assay [1], 84 nM; in assay [6], 2200 nM. For the compound `N#Cc1cc2c(cc1[N+](=O)[O-])=NC(=O)C(=O)N=2`, the Ki is 5600 nM on Glutamate NMDA receptor [4], 25000 nM at Glutamate NMDA receptor [5] and 1800 nM in assay [6]. Take `Cc1cn(-c2cc3nc(O)c(O)nc3cc2[N+](=O)[O-])cn1`: the Ki in assay [1] was 180 nM. In assay [1], `Oc1nc2ccc(-n3ccnc3)cc2nc1O` gave a Ki of 1600 nM. Still for that read-out and setting: in the case of `Oc1nc2cc(-n3ccnc3)c(C(F)(F)F)cc2nc1O` it was 200 nM. `Cc1nccn1-c1cc2nc(O)c(O)nc2cc1[N+](=O)[O-]` returned a Ki in assay [1] of 430 nM. With `Oc1nc2cc(F)c(-n3ccnc3)cc2nc1O`, the inhibition in assay [2] was 14%. `Cc1ccc2nc(O)c(O)nc2c1` had an inhibition in assay [3] of 28%. As to `O=[N+]([O-])c1cc2nc(O)c(O)nc2cc1-n1cnc(-c2ccccc2)c1`, in assay [1], the Ki stood at 230 nM. The compound `Nc1cc2nc(O)c(O)nc2cc1-n1ccnc1` returned an inhibition in assay [2] of 16%. `Oc1nc2cc(-n3ccnc3)c(-n3ccnc3)cc2nc1O` registered a Ki in assay [1] of 820 nM.

`NS(=O)(=O)c1cccc2c1c([N+](=O)[O-])cc1nc(O)c(O)nc12` [NBQX]: the inhibition constant Ki at Glutamate NMDA receptor [4] and on Glutamate NMDA receptor [5] was over 100000 nM each time.

(Values after ChEMBL document CHEMBL1127329, “6-(1H-imidazol-1-yl)-7-nitro-2,3(1H,4H)-quinoxalinedione hydrochloride (YM90K) and related compounds: structure-activity relationships for the AMPA-type non-NMDA receptor” (J Med Chem, 1994).)
